From publication PMC11968987 (Nature Communications, 2025) come the findings set out here.

In the test the target is SAT1 (flag-tagged recombinant SAT1) (Homo sapiens, UniProt P21673). As to the kind of experiment: DTNB-coupled SAT1 activity assay, Lineweaver-Burk plot. It is filed as biochemical. The conditions noted are these: co-substrate histone H3 (200 ng); pH 8.0, 35 °C; no ginkgolide B.
Chain of SAT1 (flag-tagged recombinant SAT1) (P21673 whole entry): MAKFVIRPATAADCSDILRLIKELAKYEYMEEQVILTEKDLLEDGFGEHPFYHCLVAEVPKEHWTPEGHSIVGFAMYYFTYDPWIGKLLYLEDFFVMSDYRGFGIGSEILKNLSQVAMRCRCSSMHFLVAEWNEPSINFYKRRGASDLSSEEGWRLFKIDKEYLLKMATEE

As for `CC(=O)SCCNC(=O)CCNC(=O)[C@H](O)C(C)(C)COP(=O)(O)OP(=O)(O)OC[C@H]1O[C@@H](n2cnc3c(N)ncnc32)[C@H](O)[C@@H]1OP(=O)(O)O` [acetyl-CoA], the km entry was “Both the Vmax and km values decreased with the addition of GB”.
